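GI50 marks 50% less growth. TGI is the concentration that stops growth completely.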
Columns and labels:
Test in all cases: growth of human tumour cells (NCI), 384-well format
[1] = tested on: NCI-H460 NSCLC
[2] = tested on: HOP-92 NSCLC
[3] = tested on: U251 glioblastoma
[4] = tested on: COLO 205 colon
[5] = tested on: SK-MEL-2 melanoma
[6] = tested on: MDA-MB-231 breast
[7] = tested on: HOP-62 NSCLC
[8] = tested on: HCT-15 colon
[9] = tested on: NCI-H226 lung
[10] = tested on: CCRF-CEM leukemia
[11] = tested on: K-562 leukemia
[12] = tested on: A498 renal
[13] = tested on: SK-MEL-5 melanoma
[14] = tested on: RXF 393 renal
[15] = tested on: SK-OV-3 ovarian
[16] = tested on: SN12C renal
[17] = tested on: IGROV1 ovarian
[18] = tested on: BT-549 breast
[19] = tested on: PC-3 prostate
[20] = tested on: SW-620 colon
[21] = tested on: OVCAR-3 ovarian
[22] = tested on: MALME-3M melanoma
[23] = tested on: TK-10 renal
[24] = tested on: M14 melanoma
[25] = tested on: OVCAR-5 ovarian
[26] = tested on: NCI/ADR-RES ovarian
[27] = tested on: SR leukemia
[28] = tested on: KM12 colon
[29] = tested on: MCF7 breast
[30] = tested on: NCI-H23 lung
[31] = tested on: SNB-19 CNS
[32] = tested on: MDA-MB-435 melanoma
[33] = tested on: A549 NSCLC
[34] = tested on: NCI-H322M lung
[35] = tested on: MOLT-4 leukemia
[36] = tested on: SF-539 CNS
[37] = tested on: SF-268 CNS
[38] = tested on: SK-MEL-28 melanoma
[39] = tested on: OVCAR-4 ovarian
[40] = tested on: MDA-MB-468 breast
[41] = tested on: HT29 colon
[42] = tested on: HL-60(TB) leukemia
[43] = tested on: CAKI-1 renal
[44] = tested on: SF-295 CNS
[45] = tested on: DU-145 prostate
[46] = tested on: T-47D breast
[47] = tested on: UACC-62 melanoma
[48] = tested on: LOX IMVI melanoma
[49] = tested on: 786-0 renal
[50] = tested on: UO-31 renal
[51] = tested on: ACHN renal
[52] = tested on: HCT-116 colon
[53] = tested on: UACC-257 melanoma
[54] = tested on: RPMI-8226 leukemia
[55] = tested on: NCI-H522 lung
[56] = tested on: OVCAR-8 ovarian
[57] = tested on: HCC-2998 colon

C[C@H](CCOc1cccc(CC(=O)O)c1)N(Cc1cccc(C(F)(F)F)c1Cl)CC(c1ccccc1)c1ccccc1
GI50 [1]: 3.5 µM
TGI [1]: 11.3 µM
GI50 [2]: 2.97 µM
TGI [2]: 8.88 µM
GI50 [3]: 2.69 µM
TGI [3]: 7.64 µM
GI50 [4]: 8.19 µM
TGI [4]: 20.5 µM
GI50 [5]: 14 µM
TGI [5]: 27 µM
GI50 [6]: 10.2 µM
TGI [6]: 21.9 µM
GI50 [7]: 3.86 µM
TGI [7]: 12.9 µM
GI50 [8]: 3.83 µM
TGI [8]: 13 µM
GI50 [9]: 4.17 µM
TGI [9]: 15.7 µM
GI50 [10]: 1.72 µM
TGI [10]: 4.13 µM
GI50 [11]: 3.55 µM
TGI [11]: 13.4 µM
GI50 [12]: 4.51 µM
TGI [12]: 15.6 µM
GI50 [13]: 3.29 µM
TGI [13]: 11.1 µM
GI50 [14]: 2.1 µM
TGI [14]: 5.24 µM
GI50 [15]: 9.13 µM
TGI [15]: 21.2 µM
GI50 [16]: 5.1 µM
TGI [16]: 16.2 µM
GI50 [17]: 5.92 µM
TGI [17]: 18.5 µM
GI50 [18]: 3.27 µM
TGI [18]: 12.7 µM
GI50 [19]: 4.33 µM
TGI [19]: 13.1 µM
GI50 [20]: 4.66 µM
TGI [20]: 15.7 µM
GI50 [21]: 2.79 µM
TGI [21]: 7.28 µM
GI50 [22]: 15 µM
TGI [22]: 28.3 µM
GI50 [23]: 6.54 µM
TGI [23]: 18.8 µM
GI50 [24]: 5.84 µM
TGI [24]: 18.2 µM
GI50 [25]: 11.2 µM
TGI [25]: 23.3 µM
GI50 [26]: 3.54 µM
TGI [26]: 12.5 µM
GI50 [27]: 1.73 µM
TGI [27]: 3.16 µM
GI50 [28]: 3.76 µM
TGI [28]: 12.5 µM
GI50 [29]: 3.9 µM
TGI [29]: 14 µM
GI50 [30]: 2.28 µM
TGI [30]: 5.31 µM
GI50 [31]: 4.66 µM
TGI [31]: 14 µM
GI50 [32]: 10.9 µM
TGI [32]: 23 µM
GI50 [33]: 3.46 µM
TGI [33]: 12 µM
GI50 [34]: 4.7 µM
TGI [34]: 17.3 µM
GI50 [35]: 1.61 µM
TGI [35]: 3.15 µM
GI50 [36]: 3.92 µM
TGI [36]: 14.2 µM
GI50 [37]: 3.04 µM
TGI [37]: 11 µM
GI50 [38]: 15.8 µM
TGI [38]: 29.3 µM
GI50 [39]: 5.04 µM
TGI [39]: 18.2 µM
GI50 [40]: 3.06 µM
TGI [40]: 7.76 µM
GI50 [41]: 4.23 µM
TGI [41]: 16.2 µM
GI50 [42]: 2.26 µM
TGI [42]: 4.22 µM
GI50 [43]: 6.37 µM
TGI [43]: 18.5 µM
GI50 [44]: 2.64 µM
TGI [44]: 7.41 µM
GI50 [45]: 5.06 µM
TGI [45]: 16.5 µM
GI50 [46]: 1.84 µM
TGI [46]: 10 µM
GI50 [47]: 9.52 µM
TGI [47]: 21.4 µM
GI50 [48]: 4.34 µM
TGI [48]: 17.5 µM
GI50 [49]: 4.3 µM
TGI [49]: 15.4 µM
GI50 [50]: 5.07 µM
TGI [50]: 16.7 µM
GI50 [51]: 5 µM
TGI [51]: 16.1 µM
GI50 [52]: 3 µM
TGI [52]: 11.2 µM
GI50 [53]: 3.35 µM
TGI [53]: 13 µM
GI50 [54]: 1.5 µM
TGI [54]: 2.93 µM
GI50 [55]: 2.55 µM
TGI [55]: 9.37 µM
GI50 [56]: 4.56 µM
TGI [56]: 15.4 µM
GI50 [57]: 2.58 µM
TGI [57]: 7.25 µM
